Patent publication US20120270237A9, “METHODS FOR THE IDENTIFICATION OF KINASE INTERACTING MOLECULES AND FOR THE PURIFICATION OF KINASE PROTEINS” (Cellzone AG, priority 2009, published 2012)

Legend:
Experiment in all cases: Kinobeads competition binding, L-363 cell lysate
Set-up in all cases: endogenous in cells
Conditions in all cases: 10 μM free compound, L-363 lysate
[1] = target: CDK9 (Homo sapiens, UniProt P50750)
Procedure: (§1) To one aliquot of cell lysate 10 μM of the free compound (FIG. 3, CZC31326) was added and allowed to bind to proteins in the lysate. Then the affinity matrix with the immobilized compound was added to capture proteins that were not interacting with the previously added free compound. Beads were separated from the lysate and bead bound proteins were eluted in SDS sample buffer and subsequently separated by SDS-Polyacrylamide gel electrophoresis (FIG. 8). Suitable gel bands were cut out and subjected to in-gel proteolytic digestion with trypsin. The second lysate aliquot was processed identically, however no free compound was added (DMSO solvent control). Peptides originating from samples 1 and 2 were labeled with iTRAQ reagents (iTRAQ 114 and iTRAQ 117) and the combined samples were analyzed with a nano-flow liquid chromatography system coupled online to a tandem mass spectrometer (LC-MS/MS) experiment followed by iTRAQ reporter ion quantification in the MS/MS spectra as described in Example 2.
(§2) For this experiment the human plasma cell leukaemia line L-363 was used (German Collection of Microorganisms and Cell Cultures, DSMZ number ACC49, Braunschweig, Germany). Cells were treated for three hours with 20 μM of the proteasome inhibitor MG132 (Z-Leu-Leu-Leu-al, Sigma C2211) prior to cell harvesting.

[2] = target: T1, GCK (Homo sapiens, UniProt Q12851)
T1 sequence (Q12851 1-820): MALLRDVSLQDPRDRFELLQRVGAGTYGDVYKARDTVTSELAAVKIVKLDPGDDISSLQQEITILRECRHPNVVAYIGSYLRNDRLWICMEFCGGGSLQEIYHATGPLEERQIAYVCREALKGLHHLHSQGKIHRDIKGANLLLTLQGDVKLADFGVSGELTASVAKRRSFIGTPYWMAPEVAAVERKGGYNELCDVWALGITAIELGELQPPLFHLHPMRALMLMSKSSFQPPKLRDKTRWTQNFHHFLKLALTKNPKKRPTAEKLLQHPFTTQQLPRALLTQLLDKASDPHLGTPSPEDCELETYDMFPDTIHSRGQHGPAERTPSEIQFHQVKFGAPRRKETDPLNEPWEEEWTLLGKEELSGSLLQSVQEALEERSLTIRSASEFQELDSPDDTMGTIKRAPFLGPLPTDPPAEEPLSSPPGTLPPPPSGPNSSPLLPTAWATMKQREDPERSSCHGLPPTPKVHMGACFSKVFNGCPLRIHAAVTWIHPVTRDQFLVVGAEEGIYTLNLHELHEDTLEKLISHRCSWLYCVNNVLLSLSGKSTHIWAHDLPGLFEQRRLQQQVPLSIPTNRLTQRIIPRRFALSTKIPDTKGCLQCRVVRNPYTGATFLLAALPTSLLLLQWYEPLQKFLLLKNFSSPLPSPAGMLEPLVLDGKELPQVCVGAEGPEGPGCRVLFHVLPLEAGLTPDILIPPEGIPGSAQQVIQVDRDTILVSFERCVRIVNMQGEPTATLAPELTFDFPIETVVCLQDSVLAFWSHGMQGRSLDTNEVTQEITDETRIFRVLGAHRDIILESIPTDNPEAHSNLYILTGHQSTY
Procedure: as §1, §2

[3] = target: T2, MST1 (Homo sapiens, UniProt Q13043)
T2 sequence (Q13043 1-487): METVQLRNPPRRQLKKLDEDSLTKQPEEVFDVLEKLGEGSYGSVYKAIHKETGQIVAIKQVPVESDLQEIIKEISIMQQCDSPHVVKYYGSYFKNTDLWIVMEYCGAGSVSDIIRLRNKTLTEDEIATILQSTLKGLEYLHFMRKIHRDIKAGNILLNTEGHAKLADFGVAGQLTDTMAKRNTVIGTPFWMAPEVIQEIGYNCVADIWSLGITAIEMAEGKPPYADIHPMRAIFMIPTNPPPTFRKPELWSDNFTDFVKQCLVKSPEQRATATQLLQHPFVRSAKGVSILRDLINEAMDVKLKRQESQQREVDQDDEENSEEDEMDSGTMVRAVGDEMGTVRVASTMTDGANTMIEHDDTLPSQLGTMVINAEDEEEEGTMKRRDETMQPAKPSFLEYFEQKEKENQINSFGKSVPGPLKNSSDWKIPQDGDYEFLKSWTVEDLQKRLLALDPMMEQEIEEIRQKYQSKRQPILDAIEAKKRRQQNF
Procedure: as §1, §2

[4] = target: PYK2 (Homo sapiens, UniProt Q14289)
Procedure: as §1, §2

CDK9, sequence (P50750 whole entry): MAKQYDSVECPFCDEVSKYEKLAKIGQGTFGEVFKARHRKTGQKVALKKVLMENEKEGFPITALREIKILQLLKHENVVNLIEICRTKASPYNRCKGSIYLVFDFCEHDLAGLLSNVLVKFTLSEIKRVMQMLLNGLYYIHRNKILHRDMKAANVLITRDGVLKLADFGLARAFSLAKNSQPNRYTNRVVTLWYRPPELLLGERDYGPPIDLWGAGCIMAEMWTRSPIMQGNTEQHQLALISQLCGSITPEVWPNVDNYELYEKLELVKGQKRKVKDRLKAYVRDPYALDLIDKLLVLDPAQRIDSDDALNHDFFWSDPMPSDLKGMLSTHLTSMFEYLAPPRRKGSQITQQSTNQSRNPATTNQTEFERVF
PYK2, sequence (Q14289 whole entry): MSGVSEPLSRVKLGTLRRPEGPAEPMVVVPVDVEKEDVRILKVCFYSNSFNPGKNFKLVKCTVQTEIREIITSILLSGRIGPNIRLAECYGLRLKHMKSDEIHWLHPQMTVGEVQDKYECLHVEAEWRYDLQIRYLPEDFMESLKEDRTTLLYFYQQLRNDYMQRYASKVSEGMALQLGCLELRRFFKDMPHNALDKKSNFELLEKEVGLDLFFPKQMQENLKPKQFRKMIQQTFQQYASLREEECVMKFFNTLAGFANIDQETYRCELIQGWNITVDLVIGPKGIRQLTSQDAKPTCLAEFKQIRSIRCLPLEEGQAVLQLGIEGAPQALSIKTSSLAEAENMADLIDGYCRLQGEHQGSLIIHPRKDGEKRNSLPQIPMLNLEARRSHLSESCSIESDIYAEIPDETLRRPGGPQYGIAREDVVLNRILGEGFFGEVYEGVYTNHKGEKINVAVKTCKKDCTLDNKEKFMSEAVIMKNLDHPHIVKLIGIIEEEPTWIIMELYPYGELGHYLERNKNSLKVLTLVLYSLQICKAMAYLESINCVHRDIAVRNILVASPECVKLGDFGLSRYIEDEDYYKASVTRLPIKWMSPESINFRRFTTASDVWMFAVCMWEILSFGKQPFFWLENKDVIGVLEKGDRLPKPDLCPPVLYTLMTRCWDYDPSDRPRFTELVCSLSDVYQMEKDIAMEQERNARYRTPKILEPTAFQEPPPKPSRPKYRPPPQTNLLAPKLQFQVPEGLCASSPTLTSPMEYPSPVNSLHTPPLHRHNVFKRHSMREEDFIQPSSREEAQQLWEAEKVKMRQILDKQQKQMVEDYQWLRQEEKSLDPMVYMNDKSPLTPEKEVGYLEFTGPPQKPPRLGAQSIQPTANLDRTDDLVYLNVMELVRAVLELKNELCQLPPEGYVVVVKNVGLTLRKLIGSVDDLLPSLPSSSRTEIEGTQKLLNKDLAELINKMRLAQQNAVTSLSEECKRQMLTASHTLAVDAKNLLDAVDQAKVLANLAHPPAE

Work on CS(=O)(=O)Nc1ccccc1Nc1nc(Nc2cccc(OCCN)c2)ncc1Cl [CZC31326, N-(2-(2-(3-(2-aminoethoxy)phenylamino)-5-chloropyrimidin-4-ylamino)phenyl)methanesulfonamide] yielded an inhibition at 10 µM [1] of 97.7%, an inhibition at 10 µM [2] of 95.1% and a Competition % [3] of 98.3%. It also gave an inhibition at 10 µM [4] of 96.1%.
